From patent US8871753B2, “Macrocyclic compounds and their use as kinase inhibitors” (Incyte Corporation, priority 2008, dated 2014)
Counter-ions that a name gives are not always drawn. Like-named read-outs stand apart in the source and are kept apart here.

How the values were obtained:
Format in all cases: biochemical
[1] = target: T1, human JAK1 (a.a. 837-1142) (Homo sapiens, UniProt P23458); assay: In vitro JAK kinase assay (HTRF, phosphorylation of a biotinylated peptide), JAK1; details: read-out: JAK1 IC50
T1 construct: human JAK1 (a.a. 837-1142); His tag (N); made in house; host or cells: insect cells (baculovirus)
Method in brief: (§1)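 Kinase reactions ran at room temperature for 1 h with ATP matched per isoform (JAK1 90 μM, JAK2 30 μM, JAK3 3 μM). After an EDTA stop, the phosphorylated biotin-peptide was read by HTRF using Eu-Py20 and SA-APC after 40 min binding.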

[2] = target: T2, human JAK2 (a.a. 828-1132) (Homo sapiens, UniProt O60674); assay: In vitro JAK kinase assay (HTRF, phosphorylation of a biotinylated peptide), JAK2
T2 construct: JAK2 (a.a. 828-1132); His tag (N); made in house; host or cells: insect cells (baculovirus)
Method in brief: as §1

[3] = target: T3, human JAK3 (a.a. 781-1124) (Homo sapiens, UniProt P52333); assay: In vitro JAK kinase assay (HTRF, phosphorylation of a biotinylated peptide), JAK3
T3 construct: JAK3 (a.a. 781-1124); His tag (N); made in house; host or cells: insect cells (baculovirus)
Method in brief: as §1

TYK2 = TYK2 (Homo sapiens, UniProt P29597); assay: TYK2 kinase inhibition (Table A1)
[4] = target: T4, Recombinant Human Anaplastic Lymphoma Kinase (Homo sapiens, UniProt Q9UM73); assay: ALK HTRF kinase assay
T4 construct: purchased Invitrogen, Carlsbad, Calif
Method in brief: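 Recombinant human ALK phosphorylated a biotinylated synthetic peptide. Phosphotyrosine was detected by TR-FRET between a Eu-labelled anti-phosphotyrosine antibody and streptavidin-allophycocyanin. IC50 values came from fitting signal against inhibitor concentration to a four-parameter logistic equation with variable Hill slope.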

[5] = Table B1, cells without percent sign
[6] = method AA1 (90 μM ATP) or AA2 (1000 μM ATP), not stated per value
[7] = method AA1 (30 μM ATP) or AA2 (1000 μM ATP), not stated per value
[8] = method AA1 (3 μM ATP) or AA2 (1000 μM ATP), not stated per value
[9] = compound at 500 nM or 1 mM, 90 μM ATP
[10] = compound at a concentration of 500 nM or 1 mM (not specified), cells shown as percentage
[11] = percentage inhibition of the example compound at a concentration of 500 nM or 1 mM (not specified which)

T4 sequence (Q9UM73 19-1620): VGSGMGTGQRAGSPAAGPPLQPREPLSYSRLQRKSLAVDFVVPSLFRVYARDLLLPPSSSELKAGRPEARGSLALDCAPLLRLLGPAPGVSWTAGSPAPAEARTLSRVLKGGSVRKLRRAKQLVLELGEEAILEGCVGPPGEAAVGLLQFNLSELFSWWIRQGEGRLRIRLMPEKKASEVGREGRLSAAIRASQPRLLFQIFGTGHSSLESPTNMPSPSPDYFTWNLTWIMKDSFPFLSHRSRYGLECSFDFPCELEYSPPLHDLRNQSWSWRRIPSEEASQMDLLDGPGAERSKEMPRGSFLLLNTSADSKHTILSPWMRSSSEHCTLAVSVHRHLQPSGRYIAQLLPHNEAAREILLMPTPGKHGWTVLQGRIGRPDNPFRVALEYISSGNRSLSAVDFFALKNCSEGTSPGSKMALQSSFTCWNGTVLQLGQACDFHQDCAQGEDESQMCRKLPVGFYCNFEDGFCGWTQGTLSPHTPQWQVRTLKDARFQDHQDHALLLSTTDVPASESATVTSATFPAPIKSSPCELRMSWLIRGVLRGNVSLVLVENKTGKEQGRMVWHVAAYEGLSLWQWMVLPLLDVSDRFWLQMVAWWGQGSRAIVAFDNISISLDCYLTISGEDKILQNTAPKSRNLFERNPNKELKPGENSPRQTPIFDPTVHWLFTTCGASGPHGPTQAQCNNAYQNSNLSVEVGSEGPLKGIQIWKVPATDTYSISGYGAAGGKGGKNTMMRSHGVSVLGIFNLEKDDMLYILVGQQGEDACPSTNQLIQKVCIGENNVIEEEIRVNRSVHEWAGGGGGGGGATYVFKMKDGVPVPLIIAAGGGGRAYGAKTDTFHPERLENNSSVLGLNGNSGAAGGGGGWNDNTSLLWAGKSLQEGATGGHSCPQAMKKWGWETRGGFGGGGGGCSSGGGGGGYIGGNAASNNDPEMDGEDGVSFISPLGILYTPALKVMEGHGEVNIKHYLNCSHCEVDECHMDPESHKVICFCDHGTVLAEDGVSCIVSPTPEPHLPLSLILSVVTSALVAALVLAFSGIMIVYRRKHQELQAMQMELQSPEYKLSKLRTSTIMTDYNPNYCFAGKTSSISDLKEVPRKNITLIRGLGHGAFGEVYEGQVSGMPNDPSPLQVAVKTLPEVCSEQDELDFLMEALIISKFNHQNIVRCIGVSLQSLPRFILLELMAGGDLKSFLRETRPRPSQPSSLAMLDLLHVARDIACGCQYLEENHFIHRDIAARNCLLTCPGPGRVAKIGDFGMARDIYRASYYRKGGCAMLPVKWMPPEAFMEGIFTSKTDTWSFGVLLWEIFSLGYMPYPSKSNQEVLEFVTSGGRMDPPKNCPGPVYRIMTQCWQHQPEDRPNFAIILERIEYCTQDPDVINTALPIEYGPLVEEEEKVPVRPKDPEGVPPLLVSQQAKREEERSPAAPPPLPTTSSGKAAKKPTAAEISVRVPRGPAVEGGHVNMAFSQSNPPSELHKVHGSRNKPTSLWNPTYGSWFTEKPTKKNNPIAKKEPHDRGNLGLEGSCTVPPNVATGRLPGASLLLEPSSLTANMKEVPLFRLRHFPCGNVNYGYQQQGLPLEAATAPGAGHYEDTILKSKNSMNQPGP
T1 sequence (P23458 849-1154): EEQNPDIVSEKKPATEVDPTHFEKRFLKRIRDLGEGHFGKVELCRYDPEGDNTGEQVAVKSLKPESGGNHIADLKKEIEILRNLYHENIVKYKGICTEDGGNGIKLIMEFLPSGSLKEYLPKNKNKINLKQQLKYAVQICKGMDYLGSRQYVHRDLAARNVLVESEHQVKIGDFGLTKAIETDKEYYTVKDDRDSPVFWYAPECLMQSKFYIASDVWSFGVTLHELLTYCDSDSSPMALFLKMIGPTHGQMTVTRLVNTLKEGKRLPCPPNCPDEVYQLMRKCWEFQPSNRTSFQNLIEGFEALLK
T3 sequence (P52333 781-1124): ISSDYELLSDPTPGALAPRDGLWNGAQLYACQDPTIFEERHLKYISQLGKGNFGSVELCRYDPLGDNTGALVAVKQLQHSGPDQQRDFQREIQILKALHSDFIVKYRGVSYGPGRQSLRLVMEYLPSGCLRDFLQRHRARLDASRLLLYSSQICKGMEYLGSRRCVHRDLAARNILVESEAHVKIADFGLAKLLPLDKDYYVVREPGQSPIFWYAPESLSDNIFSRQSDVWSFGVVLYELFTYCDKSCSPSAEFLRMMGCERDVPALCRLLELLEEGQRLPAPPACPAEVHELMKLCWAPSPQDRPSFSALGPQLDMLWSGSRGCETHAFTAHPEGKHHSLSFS
T2 sequence (O60674 828-1132): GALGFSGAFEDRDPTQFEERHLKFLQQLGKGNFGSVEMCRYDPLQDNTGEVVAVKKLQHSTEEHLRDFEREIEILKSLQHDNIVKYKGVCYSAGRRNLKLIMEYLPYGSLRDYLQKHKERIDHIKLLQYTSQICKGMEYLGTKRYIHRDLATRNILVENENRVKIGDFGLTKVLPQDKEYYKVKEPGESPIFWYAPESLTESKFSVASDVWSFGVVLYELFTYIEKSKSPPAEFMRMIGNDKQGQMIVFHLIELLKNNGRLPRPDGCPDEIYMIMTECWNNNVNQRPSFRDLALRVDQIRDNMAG
TYK2, sequence (P29597 whole entry): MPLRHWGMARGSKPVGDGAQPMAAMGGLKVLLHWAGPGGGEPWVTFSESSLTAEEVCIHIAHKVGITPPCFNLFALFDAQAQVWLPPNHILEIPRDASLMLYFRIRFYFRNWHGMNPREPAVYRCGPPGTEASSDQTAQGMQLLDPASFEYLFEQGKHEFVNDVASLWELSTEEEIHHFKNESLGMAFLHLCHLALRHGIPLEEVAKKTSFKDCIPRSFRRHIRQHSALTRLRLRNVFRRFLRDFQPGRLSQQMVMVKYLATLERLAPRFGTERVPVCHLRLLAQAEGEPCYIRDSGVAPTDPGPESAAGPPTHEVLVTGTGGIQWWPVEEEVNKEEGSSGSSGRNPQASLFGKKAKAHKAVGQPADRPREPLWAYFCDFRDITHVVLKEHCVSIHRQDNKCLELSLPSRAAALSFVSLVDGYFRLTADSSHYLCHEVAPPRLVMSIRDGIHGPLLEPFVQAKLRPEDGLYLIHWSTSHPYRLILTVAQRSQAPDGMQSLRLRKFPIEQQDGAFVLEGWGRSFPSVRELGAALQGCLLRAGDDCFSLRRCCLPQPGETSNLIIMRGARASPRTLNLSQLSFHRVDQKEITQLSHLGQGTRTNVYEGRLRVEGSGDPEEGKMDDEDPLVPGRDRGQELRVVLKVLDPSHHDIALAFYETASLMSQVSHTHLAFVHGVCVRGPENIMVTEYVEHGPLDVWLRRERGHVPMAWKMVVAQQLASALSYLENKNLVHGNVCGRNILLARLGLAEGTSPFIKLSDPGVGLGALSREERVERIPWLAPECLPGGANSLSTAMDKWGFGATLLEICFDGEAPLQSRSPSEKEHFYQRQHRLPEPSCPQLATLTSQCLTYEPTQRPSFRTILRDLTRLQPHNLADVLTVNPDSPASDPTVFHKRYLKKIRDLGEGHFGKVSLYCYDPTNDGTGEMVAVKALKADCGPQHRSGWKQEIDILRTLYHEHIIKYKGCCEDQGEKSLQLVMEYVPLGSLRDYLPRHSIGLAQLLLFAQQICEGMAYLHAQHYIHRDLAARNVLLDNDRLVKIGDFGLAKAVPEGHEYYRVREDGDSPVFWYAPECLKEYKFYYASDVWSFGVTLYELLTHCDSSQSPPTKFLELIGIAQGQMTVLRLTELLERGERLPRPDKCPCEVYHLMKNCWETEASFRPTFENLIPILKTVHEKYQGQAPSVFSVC

Clc1cnc2nc1Nc1cccc(c1)OCCc1cc(cc(-c3cnc(N4CCNCC4)nc3)c1)N2 [Example D31, 6-Chloro-19-(2-piperazin-1-ylpyrimidin-5-yl)-14-oxa-2,4,8,23-tetraazatetracyclo[15.3.1.1(3,7).1(9,13)]tricosa-1(21),3(23),4,6,9(22),10,12,17,19-nonaene tris(trifluoroacetate)]
IC50 ([1]; Table D1): 0.9 nM
IC50 ([2]; Table D1): 0.2 nM
IC50 ([3]; Table D1): 6.7 nM
IC50 (TYK2; Table D1): 2 nM
IC50 ([4]; Table D1, 90 μM ATP): 104 nM

O=C(Nc1ccc(N2CCOCC2)cc1)c1cc2cc(c1)Nc1nc(ncc1Cl)Nc1cccc(c1)CC2 [Example B9, 6-Chloro-N-(4-morpholin-4-ylphenyl)-2,4,8,22-tetraazatetracyclo[14.3.1.1(3,7).1(9,13)]docosa-1(20),3(22),4,6,9(21),10,12,16,18-nonaene-11-carboxamide trifluoroacetate]
IC50 ([1]; Table B1): 263 nM
IC50 ([2]; Table B1): 130 nM
IC50 ([3]; Table B1): > 1000 nM
IC50 (TYK2; Table B1): 683 nM
IC50 [4, 5]: > 1000 nM

CNC(=O)N1CCC(CC(=O)Nc2ccc3cc2CCc2cncc(c2)Nc2ncc(Cl)c(n2)N3)C1 (stereo not shown) [Example A93, 3-(2-{[6-Chloro-2,4,8,18,22-pentaazatetracyclo[14.3.1.1(3,7).1(9,13)]docosa-1(20),3(22),4,6,9(21),10,12,16,18-nonaen-12-yl]amino}-2-oxoethyl)-N-methylpyrrolidine-1-carboxamide bis(trifluoroacetate)]
IC50 [1, 6]: 22 nM
IC50 [2, 7]: 24 nM
IC50 [3, 8]: 112 nM
IC50 (TYK2): 43 nM
ALK % of inhibition at a concentration of 500 nM or 1 mM [4, 9]: 30%

Cc1cc(C(=O)Nc2ccc3cc2CCc2cccc(c2)Nc2ncc(Cl)c(n2)N3)nc(Cl)n1 [Example B280, 2-Chloro-N-[6-chloro-2,4,8,22-tetraazatetracyclo[14.3.1.1(3,7).1(9,13)]docosa-1(20),3(22),4,6,9(21),10,12,16,18-nonaen-12-yl]-6-methylpyrimidine-4-carboxamide bis(trifluoroacetate)]
IC50 ([1]; Table B1): 276 nM
IC50 ([2]; Table B1): 446 nM
IC50 ([3]; Table B1): > 10000 nM
IC50 (TYK2; Table B1): 1790 nM
ALK % of inhibition at a concentration of 500 nM or 1 mM [4, 10]: 4.6%

O=C(Nc1ccc2cc1CCc1cccc(c1)Nc1ncc(Cl)c(n1)N2)C1CCCN(C(=O)NC2CCCC2)C1 (stereo not shown) [Example A62, N(3)-[6-Chloro-2,4,8,22-tetraazatetracyclo[14.3.1.1(3,7).1(9,13)]docosa-1(20),3(22),4,6,9(21),10,12,16,18-nonaen-12-yl]-N(1)-cyclopentylpiperidine-1,3-dicarboxamide trifluoroacetate]
IC50 [1, 6]: 7 nM
IC50 [2, 7]: 5.6 nM
IC50 [3, 8]: 9.1 nM
IC50 (TYK2): 12 nM
ALK % of inhibition at a concentration of 500 nM or 1 mM [4, 9]: 26%

Clc1cccc(N2CCN(Cc3cc4cc(c3)Nc3nc(ncc3Cl)Nc3cccc(c3)CC4)CC2)n1 [Example B217, 6-Chloro-11-{[4-(6-chloropyridin-2-yl)piperazin-1-yl]methyl}-2,4,8,22-tetraazatetracyclo[14.3.1.1(3,7).1(9,13)]docosa-1(20),3(22),4,6,9(21),10,12,16,18-nonaene tris(trifluoroacetate)]
IC50 ([1]; Table B1): 225 nM
IC50 ([2]; Table B1): 71 nM
IC50 ([3]; Table B1): 199 nM
IC50 (TYK2; Table B1): > 1000 nM
IC50 [4, 5]: > 10000 nM

O=S1(=O)Cc2cccc(c2)Nc2ncc(Cl)c(n2)Nc2cccc(c2)N1 [Example C9, 6-Chloro-15-thia-2,4,8,14,23-pentaazatetracyclo[15.3.1.1(3,7).1(9,13)]tricosa-1(21),3(23),4,6,9(22),10,12,17,19-nonaene 15,15-dioxide trifluoroacetate]
IC50 [1]: 144 nM
IC50 [2]: 93 nM
IC50 [3]: 412 nM
IC50 (TYK2): 353 nM
IC50 [4]: > 1000 nM

[O-][S+]1CCOc2cccc(c2)Nc2ncc(Cl)c(n2)Nc2cccc1c2 (stereo not shown) [Example D13, 6-Chloro-17-oxa-14-thia-2,4,8,24-tetraazatetracyclo[16.3.1.1(3,7).1(9,13)]tetracosa-1(22),3(24),4,6,9(23),10,12,18,20-nonaene 14-oxide trifluoroacetate]
IC50 ([1]; Table D1): 3.6 nM
IC50 ([2]; Table D1): 2.1 nM
IC50 ([3]; Table D1): 24 nM
IC50 (TYK2; Table D1): 12 nM
IC50 ([4]; Table D1, 90 μM ATP): 1740 nM

O=C(Nc1cccc(Cl)c1)Nc1ccc2cc1CCc1cccc(c1)Nc1ncc(Cl)c(n1)N2 [Example B85, N-(3-Chlorophenyl)-N′-[6-chloro-2,4,8,22-tetraazatetracyclo[14.3.1.1(3,7).1(9,13)]docosa-1(20),3(22),4,6,9(21),10,12,16,18-nonaen-12-yl]urea trifluoroacetate]
IC50 ([1]; Table B1): 1.4 nM
IC50 ([2]; Table B1): 2.7 nM
IC50 ([3]; Table B1): 39 nM
IC50 (TYK2; Table B1): 2.2 nM
IC50 [4, 5]: > 1000 nM

O=C(Nc1ccc2cc1CCc1cncc(c1)Nc1ncc(Cl)c(n1)N2)N1CCC(c2cnccn2)C1 (stereo not shown) [Example B313, N-[6-Chloro-2,4,8,18,22-pentaazatetracyclo[14.3.1.1(3,7).1(9,13)]docosa-1(20),3(22),4,6,9(21),10,12,16,18-nonaen-12-yl]-3-pyrazin-2-ylpyrrolidine-1-carboxamide tetrakis(trifluoroacetate)]
IC50 ([1]; Table B1): 48 nM
IC50 ([2]; Table B1): 371 nM
IC50 ([3]; Table B1): > 400 nM
IC50 (TYK2; Table B1): > 400 nM
ALK % of inhibition at a concentration of 500 nM or 1 mM [4, 11]: 20%

O=S(=O)(Nc1cc2cc(c1)OCCSc1cccc(c1)Nc1nc(ncc1Cl)N2)c1ccccc1 [Example D68, N-[6-Chloro-17-oxa-14-thia-2,4,8,24-tetraazatetracyclo[16.3.1.1(3,7).1(9,13)]tetracosa-1(22),3(24),4,6,9(23),10,12,18,20-nonaen-20-yl]benzenesulfonamide trifluoroacetate]
IC50 ([1]; Table D1): 14 nM
IC50 ([2]; Table D1): 5.8 nM
IC50 ([3]; Table D1): 36 nM
IC50 (TYK2; Table D1): 32 nM
IC50 ([4]; Table D1, 90 μM ATP): 340 nM

O=C(NCCNS(=O)(=O)c1ccc(Cl)nc1)Nc1ccc2cc1CCc1cccc(c1)Nc1ncc(Cl)c(n1)N2 [Example B331, 6-Chloro-N-{2-[({[6-chloro-2,4,8,22-tetraazatetracyclo[14.3.1.1(3,7).1(9,13)]docosa-1(20),3(22),4,6,9(21),10,12,16,18-nonaen-12-yl]amino}carbonyl)amino]ethyl}pyridine-3-sulfonamide trifluoroacetate]
IC50 ([1]; Table B1): 2 nM
IC50 ([2]; Table B1): 3.6 nM
IC50 ([3]; Table B1): 2.7 nM
IC50 (TYK2; Table B1): 16 nM
ALK % of inhibition at a concentration of 500 nM or 1 mM [4, 11]: 27%

O=C(Nc1ccc(Cl)cc1)Nc1ccc2cc1CCc1cccc(c1)Nc1ncc(Cl)c(n1)N2 [Example B86, N-(4-Chlorophenyl)-N′-[6-chloro-2,4,8,22-tetraazatetracyclo[14.3.1.1(3,7).1(9,13)]docosa-1(20),3(22),4,6,9(21),10,12,16,18-nonaen-12-yl]urea trifluoroacetate]
IC50 ([1]; Table B1): 2.7 nM
IC50 ([2]; Table B1): 2.6 nM
IC50 ([3]; Table B1): 27 nM
IC50 (TYK2; Table B1): 6.4 nM
IC50 [4, 5]: > 1000 nM

O=C(NCCN1CCCC1)Nc1ccc2cc1CCc1cccc(c1)Nc1ncc(Cl)c(n1)N2 [Example B255, N-[6-Chloro-2,4,8,22-tetraazatetracyclo[14.3.1.1(3,7).1(9,13)]docosa-1(20),3(22),4,6,9(21),10,12,16,18-nonaen-12-yl]-N′-(2-pyrrolidin-1-ylethyl)urea bis(trifluoroacetate)]
IC50 ([1]; Table B1): 5.5 nM
IC50 ([2]; Table B1): 14 nM
IC50 ([3]; Table B1): 53 nM
IC50 (TYK2; Table B1): 25 nM
ALK % of inhibition at a concentration of 500 nM or 1 mM [4, 10]: 32%

O=C(CC1CCN(c2ncco2)CC1)Nc1ccc2cc1CCc1cncc(c1)Nc1ncc(Cl)c(n1)N2 [Example A246, N-[6-Chloro-2,4,8,18,22-pentaazatetracyclo[14.3.1.1(3,7).1(9,13)]docosa-1(20),3(22),4,6,9(21),10,12,16,18-nonaen-12-yl]-2-[1-(1,3-oxazol-2-yl)piperidin-4-yl]acetamide tris(trifluoroacetate)]
IC50 [1, 6]: 15 nM
IC50 [2, 7]: 120 nM
IC50 [3, 8]: > 200 nM
IC50 (TYK2): > 200 nM
ALK % of inhibition at a concentration of 500 nM or 1 mM [4, 9]: 39%

COc1cccc(CN2CCN(Cc3cc4cc(c3)Nc3nc(ncc3Cl)Nc3cccc(c3)CC4)CC2)c1 [Example B198, 6-Chloro-11-{[4-(3-methoxybenzyl)piperazin-1-yl]methyl}-2,4,8,22-tetraazatetracyclo[14.3.1.1(3,7).1(9,13)]docosa-1(20),3(22),4,6,9(21),10,12,16,18-nonaene tris(trifluoroacetate)]
IC50 ([1]; Table B1): 39 nM
IC50 ([2]; Table B1): 10 nM
IC50 ([3]; Table B1): 161 nM
IC50 (TYK2; Table B1): 289 nM
IC50 [4, 5]: > 10000 nM

Cc1cc(C(=O)N2CCC(C(=O)Nc3ccc4cc3CCc3cccc(c3)Nc3ncc(Cl)c(n3)N4)CC2)no1 [Example A120, N-[6-Chloro-2,4,8,22-tetraazatetracyclo[14.3.1.1(3,7).1(9,13)]docosa-1(20),3(22),4,6,9(21),10,12,16,18-nonaen-12-yl]-1-[(5-methylisoxazol-3-yl)carbonyl]piperidine-4-carboxamide trifluoroacetate]
IC50 [1, 6]: 21 nM
IC50 [2, 7]: 16 nM
IC50 [3, 8]: 112 nM
IC50 (TYK2): 37 nM
ALK % of inhibition at a concentration of 500 nM or 1 mM [4, 9]: 42%
